Columns and labels:
MAT2A homodimer = molecular target: T1, MAT2A homodimer (Homo sapiens, UniProt P31153); test: Biochemical assay: inhibition of MAT2A (phosphate release, PiColorLock Gold); details: MAT2A IC50 score; read-out: Enzyme Inhibition (Example 275)
T1 construct: inferred from Ni sepharose purification and imidazole elution; made in house; host or cells: Sf9 insect cells, recombinant baculovirus (Bac to Bac, pFASTBAC1)
Procedure, shortened: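 Phosphate formed alongside SAM was read with PiColorLock Gold and quantified against a potassium phosphate standard curve. Reactions ran 60 min at 25 °C after adding a substrate mix of 500 μM ATP and 400 μM L-methionine (mix concentrations). Compound had first been preincubated 60 min with recombinant Sf9-derived MAT2A homodimer ([…]) in pH 8.0 Tris buffer containing MgCl2, KCl, EDTA and BSA.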

[1] = system: SAM in HCT116 human colon carcinoma cell line engineered to delete the MTAP gene (MTAP −/−); test: Cellular assay of target engagement (SAM) by LC-MS/MS; type: cell-based; details: Homo sapiens, HCT-116, 72 h, IC50 score, read-out: Cell 72 h SAM Inhibition (MTAP −/−; Example 276)
Procedure, shortened: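 Intracellular SAM, the MAT2A product, was measured by quantitative LC-MS/MS against a d3-SAM standard in methanol/acetic acid extracts. Extracts came from HCT116 MTAP −/− cells exposed for 72 h at 37 °C to a ten-point, threefold dilution series of compound, added one day after seeding.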

HCT116 MTAP−/− = test: Inhibition of cellular proliferation (Cell Titer Glo), HCT116 MTAP−/−; type: cell-based, human; details: Homo sapiens, HCT-116, 96 h, 4 days, IC50 score, read-out: 4 Day Relative Growth Inhibition (MTAP −/−; Example 277)
Procedure, shortened: (§1)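 Proliferation was read as ATP luminescence (Cell Titer Glo) after a 4-day, 37 °C exposure of HCT116 cells differing only in MTAP deletion status. Dosing was 10 points, 3-fold steps, added 24 h post-plating; signal minus blank, relative to 0.2% DMSO control wells, was plotted against log molar concentration.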

HCT116 MTAP+/+ = test: Inhibition of cellular proliferation (Cell Titer Glo), HCT116 MTAP+/+; type: cell-based, human; details: Homo sapiens, HCT-116, 96 h, 4 days, IC50 score, read-out: 4 Day Relative Growth Inhibition (MTAP +/+; Example 277)
Procedure, shortened: as §1

T1 sequence (P31153 whole entry): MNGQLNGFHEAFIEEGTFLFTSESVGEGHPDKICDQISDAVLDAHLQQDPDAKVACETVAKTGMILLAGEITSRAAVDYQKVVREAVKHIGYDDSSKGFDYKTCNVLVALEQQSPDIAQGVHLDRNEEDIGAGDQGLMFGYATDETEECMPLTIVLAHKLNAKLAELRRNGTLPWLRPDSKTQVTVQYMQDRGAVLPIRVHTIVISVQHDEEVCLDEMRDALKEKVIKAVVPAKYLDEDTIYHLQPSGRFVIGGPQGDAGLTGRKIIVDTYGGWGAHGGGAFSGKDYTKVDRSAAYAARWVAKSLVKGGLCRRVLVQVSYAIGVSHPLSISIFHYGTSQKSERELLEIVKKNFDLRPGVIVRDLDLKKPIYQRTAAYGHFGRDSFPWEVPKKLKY

Row | IC50 (MAT2A homodimer) | IC50 [1] | IC50 (HCT116 MTAP−/−) | IC50 (HCT116 MTAP+/+) | Structure (SMILES)
1 | < 100 nM | < 100 nM | < 100 nM | > 10000 nM | O=c1c(-c2ccc(Br)cc2)c2nc(NCC(F)(F)F)ncc2cn1-c1ccc2ncccc2c1 [Example 180, 8-(4-bromophenyl)-6-(quinolin-6-yl)-2-((2,2,2-trifluoroethyl)amino)pyrido[4,3-d]pyrimidin-7(6H)-one]
2 | < 100 nM | 100 to 1000 nM | 100 to 10000 nM | > 10000 nM | CCOc1cnc2cn(-c3ccc4ncccc4c3)c(=O)c(-c3ccc(Cl)cc3)c2n1 [Example 142-A]
3 | < 100 nM | < 100 nM | 100 to 10000 nM | > 10000 nM | CCOc1ncc2cn(-c3ccc4nn(C)cc4c3)c(=O)c(-c3ccc(OC(F)F)cc3)c2n1 [Example 272, 8-(4-(difluoromethoxy)phenyl)-2-ethoxy-6-(2-methyl-2H-indazol-5-yl)pyrido[4,3-d]pyrimidin-7(6H)-one]
4 | < 100 nM | < 100 nM | 100 to 10000 nM | > 10000 nM | CCOc1ccc2cn(-c3ccc4nn(C)cc4c3)c(=O)c(-c3ccc(-c4nc[nH]n4)cc3)c2n1 [Example 222, 8-(4-(1H-1,2,4-triazol-3-yl)phenyl)-2-ethoxy-6-(2-methyl-2H-indazol-5-yl)-1,6-naphthyridin-7(6H)-one]
5 | < 100 nM | 100 to 1000 nM | 100 to 10000 nM | > 10000 nM | COc1ccc(-c2c(=O)n(-c3ccc4nccn4c3)cc3cnc(NCC(F)(F)F)nc23)cc1 [Example 143, 6-(imidazo[1,2-a]pyridin-6-yl)-8-(4-methoxyphenyl)-2-((2,2,2-trifluoroethyl)amino)pyrido[4,3-d]pyrimidin-7(6H)-one]
6 | < 100 nM | < 100 nM | < 100 nM | > 10000 nM | Cn1nnc2ccc(-n3cc4ccc(NCC(F)(F)F)nc4c(-c4ccc(Cl)cc4)c3=O)cc21 [Example 235, 8-(4-chlorophenyl)-6-(1-methyl-1H-benzo[d][1,2,3]triazol-6-yl)-2-(2,2,2-trifluoroethylamino)-1,6-naphthyridin-7(6H)-one]
7 | < 100 nM | < 100 nM | < 100 nM | 100 to 10000 nM | CCOc1ccc2cn(-c3ccc4nn(C)cc4c3)c(=O)c(-c3ccc(Br)cc3)c2n1 [Example 109-A]
8 | < 100 nM | < 100 nM | < 100 nM | > 10000 nM | Cn1cc2cc(-n3cc4ccc(OCC5CC5)nc4c(-c4ccc(Cl)cc4)c3=O)ccc2n1 [Example 233, 8-(4-chlorophenyl)-2-(cyclopropylmethoxy)-6-(2-methyl-2H-indazol-5-yl)-1,6-naphthyridin-7(6H)-one]
9 | 100 to 1000 nM | < 100 nM | 100 to 10000 nM | 100 to 10000 nM | CCOc1ccc2cn(-c3ccc4nn(CCS(C)(=O)=O)cc4c3)c(=O)c(-c3ccc(Cl)cc3)c2n1 [Example 225, 8-(4-chlorophenyl)-2-ethoxy-6-(2-(2-(methylsulfonyl)ethyl)-2H-indazol-5-yl)-1,6-naphthyridin-7(6H)-one]
10 | < 100 nM | < 100 nM | < 100 nM | 100 to 10000 nM | CCOc1ccc2cn(-c3ccc4ncn(C)c4c3)c(=O)c(-c3ccc(C)nc3)c2n1 [Example 132-A]
11 | < 100 nM | 100 to 1000 nM | 100 to 10000 nM | > 10000 nM | O=c1c(-c2ccc(OC(F)F)cc2)c2nc(NC3CC3)ncc2cn1-c1ccc2ncccc2c1 [Example 179, 2-(cyclopropylamino)-8-(4-(difluoromethoxy)phenyl)-6-(quinolin-6-yl)pyrido[4,3-d]pyrimidin-7(6)-one]
12 | < 100 nM | < 100 nM | < 100 nM | 100 to 10000 nM | CCOc1ccc2cn(-c3ccc4nn(C)cc4c3)c(=O)c(-c3ccc(OC(F)F)nc3)c2n1 [Example 218, 8-(6-(difluoromethoxy)pyridin-3-yl)-2-ethoxy-6-(2-methyl-2H-indazol-5-yl)-1,6-naphthyridin-7(6H)-one]
13 | < 100 nM | 100 to 1000 nM | 100 to 10000 nM | > 10000 nM | CN(C)CCn1cc2cc(-n3cc4cnc(NCC(F)(F)F)nc4c(-c4ccc(Cl)cc4)c3=O)ccc2n1 [Example 137, 8-(4-chlorophenyl)-6-(2-(2-(dimethylamino)ethyl)-2H-indazol-5-yl)-2-((2,2,2-trifluoroethyl)amino)pyrido[4,3-d]pyrimidin-7(6H)-one]
14 | < 100 nM | < 100 nM | < 100 nM | > 10000 nM | O=c1c(-c2ccc(Cl)cc2)c2nc(NCC(F)(F)F)ncc2cn1-c1ccc2c(c1)CCO2 [Example 133, 8-(4-chlorophenyl)-6-(2,3-dihydrobenzofuran-5-yl)-2-(2,2,2-trifluoroethylamino)pyrido[4,3-d]pyrimidin-7(6H)-one]
15 | < 100 nM | < 100 nM | < 100 nM | 100 to 10000 nM | Cn1cnc2ccc(-n3cc4ccc(OCC(F)(F)F)nc4c(-c4ccc(C(F)(F)F)nc4)c3=O)cc21 [Example 128-A]
16 | < 100 nM | < 100 nM | 100 to 10000 nM | > 10000 nM | CCOc1ccc2cn(-c3ccc4nn(C)nc4c3)c(=O)c(-c3ccc(Cl)cc3)c2n1 [Example 106-A]
17 | < 100 nM | < 100 nM | < 100 nM | > 10000 nM | CCOc1cnc2cn(-c3ccc4nn(C)cc4c3)c(=O)c(-c3ccc(Cl)cc3)c2n1 [Example 147-A]
18 | < 100 nM | 100 to 1000 nM | 100 to 10000 nM | > 10000 nM | O=c1c(-c2ccc(Cl)cc2)c2nc(NCC(F)(F)F)ncc2cn1-c1ccc2ncsc2c1 [Example 129, 6-(benzo[d]thiazol-6-yl)-8-(4-chlorophenyl)-2-(2,2,2-trifluoroethylamino)pyrido[4,3-d]pyrimidin-7(6H)-one]
19 | < 100 nM | < 100 nM | 100 to 10000 nM | > 10000 nM | CCNc1ncc2cn(-c3ccc(OC)cc3)c(=O)c(-c3ccc(Br)cc3)c2n1 [Example 188, 8-(4-bromophenyl)-2-(ethylamino)-6-(4-methoxyphenyl)pyrido[4,3-d]pyrimidin-7(6H)-one]
20 | < 100 nM | < 100 nM | < 100 nM | > 10000 nM | O=c1c(-c2ccc(Cl)cc2)c2nc(NCC(F)(F)F)ncc2cn1-c1ccc2ncn(C3CC3)c2c1 [Example 127, 8-(4-chlorophenyl)-6-(1-cyclopropyl-1H-benzo[d]imidazol-6-yl)-2-(2,2,2-trifluoroethylamino)pyrido[4,3-d]pyrimidin-7(6H)-one]
21 | < 100 nM | 100 to 1000 nM | 100 to 10000 nM | > 10000 nM | COc1ccc(-n2cc3cnc(NCC(F)(F)F)nc3c(-c3ccc(C4CC4)cc3)c2=O)cc1 [Example 167, 8-(4-cyclopropylphenyl)-6-(4-methoxyphenyl)-2-((2,2,2-trifluoroethyl)amino)pyrido[4,3-d]pyrimidin-7(6)-one]
22 | < 100 nM | < 100 nM | 100 to 10000 nM | 100 to 10000 nM | CCOc1ccc2cn(-c3ccc(OC)cc3)c(=O)c(-c3ccc(OC(F)F)nc3)c2n1 [Example 129-A]
23 | < 100 nM | < 100 nM | 100 to 10000 nM | > 10000 nM | COc1ccc(-n2cc3cnc(NCC(F)(F)F)nc3c(-c3ccc(Br)cc3)c2=O)cc1 [Example 192, 8-(4-bromophenyl)-6-(4-methoxyphenyl)-2-((2,2,2-trifluoroethyl)amino)pyrido[4,3-d]pyrimidin-7(6H)-one]
24 | < 100 nM | 100 to 1000 nM | > 10000 nM | > 10000 nM | O=c1c(-c2ccc(-c3cc[nH]n3)cc2)c2nc(NCC(F)(F)F)ncc2cn1-c1ccc2ncccc2c1 [Example 203, 8-(4-(H-pyrazol-3-yl)phenyl)-6-(quinolin-6-yl)-2-((2,2,2-trifluoroethyl)amino)pyrido[4,3-d]pyrimidin-7(6H)-one]
25 | < 100 nM | < 100 nM | 100 to 10000 nM | 100 to 10000 nM | Cn1cc2cc(-n3cc4ccc(OCC(F)(F)F)nc4c(-c4ccc(C(F)(F)F)nc4)c3=O)ccc2n1 [Example 124-A]
26 | < 100 nM | < 100 nM | < 100 nM | 100 to 10000 nM | CCOc1ccc2cn(-c3ccc4nccnc4c3)c(=O)c(-c3ccc(Cl)cc3)c2n1 [Example 244, 8-(4-chlorophenyl)-2-ethoxy-6-(quinoxalin-6-yl)-1,6-naphthyridin-7(6H)-one]
27 | < 100 nM | < 100 nM | < 100 nM | > 10000 nM | CCn1cc2cc(-n3cc4cnc(NCC(F)(F)F)nc4c(-c4ccc(OC(F)F)cc4)c3=O)ccc2n1 [Example 152, 8-(4-(difluoromethoxy)phenyl)-6-(2-ethyl-2H-indazol-5-yl)-2-((2,2,2-trifluoroethyl)amino)pyrido[4,3-d]pyrimidin-7(6H)-one]

— patent publication US11524960B2, “Heterobicyclic inhibitors of MAT2A and methods of use for treating cancer” (AGIOS PHARMACEUTICALS, INC., priority 2018, dated 2022)
